Data reported in paper PMC9106035, “Synthesis, X-ray Structure and Biological Studies of New Self-Assembled Cu(II) Complexes Derived from s-Triazine Schiff Base Ligand” (Molecules, 2022).
Values after ≈ are worked out from the molar mass of the structure shown. Values joined by “and” are separate entries in the source; they are usually repeats but may differ in a detail not shown here. Identical values can stand only once. Like-named read-outs stand apart in the source and are kept apart here. Marks after values point to notes of the source that are not given here.

Legend:
[1] = tested on: P. vulgaris (RCMB 004(1)ATCC 13315); test: Minimum Inhibitory Concentration (MIC); assay type: cell-based
Method: (§1) Method S2: Antimi crobial studies a) Tested pathogenic microbes
(§2) The antibacterial a ctivity of the studied ligands and their Cu(II) complexes were evaluated against two Gram positive bacteria ((S. aureus (ATCC 25923) and B. subtilis (RCMB015(1)NRR LB-543)), two Gram negatvie bacteria ((E. coli (ATCC 25922) and P. vulgaris (RCMB 004(1)ATCC 13315)) and two fungi ((A. fumigatus […]
(§3) was used as standard antibacterial agent. The samples maintained in Brain heart infusion (BHI) at 20 °C; […] of each stock–c ulture was added to 3 mL of BHI broth. Overnight cultures were kept for 24 h at 37 °C ± 1 °C and the purity of cultures was checked aft er 24 h of incubation. […]
(§4) c) Minimum Inhibitory Concentration (MIC)
(§5) Different dilutions of the compounds are inoculat ed with tested pathogenic microbes.
(§6) After incubation period of 96 well microplate, the results are meas ured using microplate reader. To determine at what level the MIC endpoint is established; subculture of test samples at different concentrati ons occurred in nutrient agar plates.

[2] = tested on: E. coli (ATCC 25922); test: Minimum Inhibitory Concentration (MIC); assay type: cell-based
Method: as §1, §2, §3, §4, §5, §6

[3] = tested on: S. aureus (ATCC 25923); test: Minimum Inhibitory Concentration (MIC); assay type: cell-based
Method: as §1, §2, §3, §4, §5, §6

[4] = tested on: B. subtilis (RCMB015(1)NRR LB-543); test: Minimum Inhibitory Concentration (MIC); assay type: cell-based
Method: as §1, §2, §3, §4, §5, §6

[5] = tested on: P. vulgaris (RCMB 004(1)ATCC 13315); test: Agar well diffusion, inhibition zone; assay type: cell-based; details: 10 mg/mL of the tested compounds
Method: (§7) The antimicrobial activity of the free ligands and the corresponding Cu(II) complexes was determined against different categories of microbes (Table 5). All inhibition zones were determined at 10 mg/mL of the tested compounds. […] The largest inhibition zones were found for B. subtilis (25 mm), which is very close to the standard Gentamycin (26 mm). […] Complex 1 evidenced antimicrobial activity against all microbes except C. albicans.
as §1, §2, §3
(§8) b) Agar well diffusion method
(§9) Synthetic compounds were prepared at concentration 10 mg/mL dissolved in DMSO as stock solutions. Preparation of sterilized Mueller Hinton agar plates seeded with tested pathogenic b acteria occurred. The wells are done by sterilized cork borer in size […]
(§10) comparably with DMSO as control. The plates were incubated at 37°C for 24 h. after incubation period; antimicrobial activity was d etermined by inhibition zones. […]

[6] = tested on: E. coli (ATCC 25922); test: Agar well diffusion, inhibition zone; assay type: cell-based; details: 10 mg/mL of the tested compounds
Method: as §7, §1, §2, §3, §8, §9, §10

[7] = tested on: S. aureus (ATCC 25923); test: Agar well diffusion, inhibition zone; assay type: cell-based; details: 10 mg/mL of the tested compounds
Method: as §7, §1, §2, §3, §8, §9, §10

[8] = tested on: B. subtilis (RCMB015(1)NRR LB-543); test: Agar well diffusion, inhibition zone; assay type: cell-based; details: 10 mg/mL of the tested compounds
Method: as §7, §1, §2, §3, §8, §9, §10

[9] = DPPH radical scavenging assay; assay type: biochemical
Method: The studied Cu(II) complexes and the free ligands were assessed for their antioxidant activity levels using an α,α-diphenyl-β-picrylhydrazyl (DPPH) scavenging assay, and the results are given in Table 7. […] The results indicated better antioxidant activity for DMAT than for DMOHT, indicating the effect of the substituent at the phenyl moiety on the antioxidant activity level of the free ligand. […] On the other hand, the Cu(II) complexes have improved levels of antioxidant activity compared to the free ligands.
Method S3 DPPH Radical Scavenging Activity:
Freshly prepared (0.004 %w/v) methanol solution of 2,2-diphenyl-1-pi crylhydrazyl (DPPH) radical was prepared and stored at 10 °C in dark place. A methanolic solution of the test compound was prepared using the same procedure. A 40 uL aliquot of the methanol solution was added to 3mL of DPPH solution. Absorbance measurements were recorded immediately with a UV-visible spectrophotometer (Milton Roy, Spectronic 1201). The decrease in absorbance at 515 nm was determined continuously, with data being recorded at 1 min intervals until the absorbance stabilized (16 min). The absorbance of the DPPH radical without antioxidant (control) and the reference compound ascorbic acid were also measured.
All the determinations were performed in three replicates and averaged. The percentage inhibition (PI) of the DPPH radical was calculated according to the […]
PI = [{(AC- AT)/ AC} x 100] (1)
Where AC = Absorbance of the control at t = 0 min and AT = absorbance of the sample+DPPH at t = 16 min. The 50% inhibitory concentration (IC50), the concentration required t o inhibit DPPH radical by 50%, was estimated from graphic plots of the dose respons e curve.

[10] = tested on: A. fumigatus (RCMB 002008); test: Agar well diffusion, inhibition zone; assay type: cell-based; details: 10 mg/mL of the tested compounds
Method: as §7, §1, §2
was used as standard antibacterial agent. The samples maintained in Brain heart infusion (BHI) at 20 °C; […] of each stock–c ulture was added to 3 mL of BHI […]
broth. […]
(§11) 0.5). In case of fungi A. fumigatus (RCMB 002008) and C. albicans (RCMB 005003(1) ATCC 10231), the used medium in antagonistic activity against tested fungi is Potato Dextrose Agar, where Fluconazole was used standard antifungal agent. b) Agar well diffusion method
as §9, §10

[11] = tested on: C. albicans (RCMB 005003(1) ATCC 10231); test: Agar well diffusion, inhibition zone; assay type: cell-based; details: 10 mg/mL of the tested compounds
Method: as §7, §1
(§12) The antibacterial a ctivity of the studied ligands and their Cu(II) complexes were evaluated against two Gram positive bacteria ((S. aureus (ATCC 25923) and B. […]
as §11, §9, §10

[12] = tested on: C. albicans (RCMB 005003(1) ATCC 10231); test: Minimum Inhibitory Concentration (MIC); assay type: cell-based; details: Candida albicans, read-out: MIC
Method: as §1, §12
(§13) 0.5). In case of fungi A. fumigatus (RCMB 002008) and C. albicans (RCMB 005003(1) ATCC 10231), the used medium in antagonistic activity against tested fungi is Potato Dextrose Agar, where Fluconazole was used standard antifungal agent. […]
as §4, §5, §6

[13] = tested on: A. fumigatus (RCMB 002008); test: Minimum Inhibitory Concentration (MIC); assay type: cell-based
Method: as §1, §12, §13, §4, §5, §6

[14] = tested on: lung carcinoma A-549 cell line; test: Anticancer activity, MTT viability assay; assay type: cell-based; details: A-549 cells, 24 h, MTT
Method: The studied compounds were examined for their anticancer activity against the lung carcinoma A-549 cell line.
Method S4 Evaluation of Cytotoxic activity
The cells were propagated in Dulbecco’s modified Eagle’s medium (DMEM) supplemented with 10% heat-inactivated fetal bovine serum, 1 % L-glutamine, HEPES buffer and 50µg/mL Gentamycin. All cells were maintained at 37 °C in a humidified atmosphere with 5% CO2 and were subcultured tw o times a week.
Cytotoxicity evaluation using viability assay
For cytotoxicity assay, the cells were seeded in 96-well plate at a cell concentration of 1×10^4 cells per well in 100µl of growth medium. Fresh medium containing different concentrations of the test sample was added after 24 h of seeding. Serial two-fold dilutions of the tested chemical compound were added to confluent cell monolayers dispensed into 96-well, flat-bottomed microtiter plates (Falcon, NJ, USA) using a multichannel pipette. The microtiter plates were incubated at 37 °C in a humidified incubator with 5% CO2 for a period of 24 h. Three wells were used for each concentration of the test sample. Control cells were incubated without test sample and with or without DMSO. The little percentage of DMSO present in the […]
cells for at 37°C, for 24 h, the viabl e cells yield was determined by the MTT test.
Briefly, the media was removed from the 96 well plate and replaced with 100 µL of fresh culture DMEM m edium without phenol red then 10 µL of the 12 mM MTT stock solution (5 mg of MTT in 1 mL of PBS) to each well including the untreated controls. The 96 well plates were then incubated at 37°C and 5% CO2 for 4 hours. An 85 µL aliquot of the media was removed from t he wells, and 50 µL of DMSO was added to each well and mixed thoroughly with the pipette and incubated at 37°C for 10 min. Then, the optical density was measured at 590 nm with the microplate reader (SunRise, TECAN, Inc, USA) to determine the number of viable cells and the percentage of viability was calculat ed as [(ODt/ODc)]x100% where ODt i s the mean optical density of wells treated with the tested s ample and ODc is the mean optical density of untreated cells. The relation between surviving cells and drug concentration is plotted to get the survival curve of each tumor cell line after treatment with the specified compound. The 50% inhibitory concentration (IC50), the concentration required to cause t oxic effects in 50% of intact cells, was estimated from graphic plots of the dose response curve for each conc. using Graphpad Prism software (San Diego, […]

Gentamycin [reference compound]
MIC [1]: 4.8 ^b μg/mL
MIC [2]: 4.8 ^b μg/mL
MIC [3]: 9.7 ^b μg/mL
MIC [4]: 4.8 μg/mL and 4.8 ^b μg/mL
Inhibition zone diameters [5]: 25 ^b mm
Inhibition zone diameters [6]: 30 ^b mm
Inhibition zone diameters [7]: 24 ^b mm
Inhibition zone diameters [8]: 26 mm and 26 ^b mm

O=C1O[C@H]([C@@H](O)CO)C(O)=C1O [Ascorbic Acid, ascorbic acid, reference compound]
DPPH Scavenging % ([9]; Conc. 2.5 μg/mL): 34.57%
DPPH Scavenging % ([9]; Conc. 5 μg/mL): 40.36%
DPPH Scavenging % ([9]; Conc. 10 μg/mL): 48.52%
DPPH Scavenging % ([9]; Conc. 20 μg/mL): 71.38%
DPPH Scavenging % ([9]; Conc. 40 μg/mL): 83.09%
DPPH Scavenging % ([9]; Conc. 80 μg/mL): 90.25%
DPPH Scavenging % ([9]; Conc. 160 μg/mL): 92.31%
DPPH Scavenging % ([9]; Conc. 320 μg/mL): 95.64%
DPPH Scavenging % ([9]; Conc. 640 μg/mL): 97.83%
DPPH Scavenging % ([9]; Conc. 1280 μg/mL): 98.91%
IC50 (DPPH scavenging) ([9]; antioxidant activity): 10.62 ± 0.84 µg/mL (≈ 60.3 µM)

CC(=O)N1CCN(c2ccc(OCC3COC(Cn4ccnc4)(c4ccc(Cl)cc4Cl)O3)cc2)CC1 (stereo not shown) [Ketoconazole, reference compound]
Inhibition zone diameters [10]: 17 mm and 17 ^a mm
Inhibition zone diameters [11]: 20 ^a mm
MIC [12]: 312 µg/mL (≈ 588 µM)
MIC [13]: 156.25 ^a μg/mL
MIC ([13]; Aspergillus fumigatus, RCMB002008, read-out: MIC): 156 µg/mL (≈ 294 µM)

N.N.[Cl][Pt][Cl] [cis-Platin, cis-platin, reference compound]
IC50 [14]: 25 µM
